# Laboratory results: patent US7338454B2, “Breath test” (Children, Youth and Women's Health Service Incorporated, priority 2001, dated 2008)
# “And” between values parts separate entries of the source, which are not always exact repeats. Identical values can stand only once. Marks after values point to notes of the source that are not given here.
# What was measured:
# Dark Agouti rats [1] = assay: Food intake of 5-FU treated rats; assay type: in vivo, rat; conditions: 5-FU 150 mg/kg i.p.
# Method: (§1) Ten female Dark Agouti rats were injected intraperitoneally with 150 mg/kg 5-FU; three rats there killed at 48, 72 and four at 96 hours after 5-FU treatment. Two control rats were not treated with 5-FU. Sucrose breath tests (SBT) were undertaken before chemotherapy and prior to sacrifice by measuring released ^13CO2 in the breath after gavages of ^13C-sucrose as an indicator of small intestine (SI) sucrase function. Tissue samples were collected from SI for sucrase enzyme determinations and histological assessment from the jejunum and ileum.
# sucrase [2] = assay: Ileal sucrase activity in 5-FU treated rats; assay type: in vivo, rat; conditions: 5-FU 150 mg/kg i.p., normal level 54.9±0.9
# Method: as §1
# small intestine [3] = assay: Histological severity scores of jejunum and ileum in 5-FU treated rats; assay type: in vivo, rat; conditions: 5-FU 150 mg/kg i.p.
# Method: as §1
# sucrase [4] = molecular target: T1, sucrase (Homo sapiens, UniProt P14410); assay: 13C-Sucrose Breath Test in healthy adults, with and without sucrase inhibitor; assay type: in vivo; conditions: two human subjects, respectively; 200 mg acarbose with 20 g sucrose vs 20 g sucrose alone
# T1 construct: from tissue; host or cells: small-intestinal brush border of living human volunteers (in vivo breath test; no isolated protein)
# T1 sequence (P14410 whole entry): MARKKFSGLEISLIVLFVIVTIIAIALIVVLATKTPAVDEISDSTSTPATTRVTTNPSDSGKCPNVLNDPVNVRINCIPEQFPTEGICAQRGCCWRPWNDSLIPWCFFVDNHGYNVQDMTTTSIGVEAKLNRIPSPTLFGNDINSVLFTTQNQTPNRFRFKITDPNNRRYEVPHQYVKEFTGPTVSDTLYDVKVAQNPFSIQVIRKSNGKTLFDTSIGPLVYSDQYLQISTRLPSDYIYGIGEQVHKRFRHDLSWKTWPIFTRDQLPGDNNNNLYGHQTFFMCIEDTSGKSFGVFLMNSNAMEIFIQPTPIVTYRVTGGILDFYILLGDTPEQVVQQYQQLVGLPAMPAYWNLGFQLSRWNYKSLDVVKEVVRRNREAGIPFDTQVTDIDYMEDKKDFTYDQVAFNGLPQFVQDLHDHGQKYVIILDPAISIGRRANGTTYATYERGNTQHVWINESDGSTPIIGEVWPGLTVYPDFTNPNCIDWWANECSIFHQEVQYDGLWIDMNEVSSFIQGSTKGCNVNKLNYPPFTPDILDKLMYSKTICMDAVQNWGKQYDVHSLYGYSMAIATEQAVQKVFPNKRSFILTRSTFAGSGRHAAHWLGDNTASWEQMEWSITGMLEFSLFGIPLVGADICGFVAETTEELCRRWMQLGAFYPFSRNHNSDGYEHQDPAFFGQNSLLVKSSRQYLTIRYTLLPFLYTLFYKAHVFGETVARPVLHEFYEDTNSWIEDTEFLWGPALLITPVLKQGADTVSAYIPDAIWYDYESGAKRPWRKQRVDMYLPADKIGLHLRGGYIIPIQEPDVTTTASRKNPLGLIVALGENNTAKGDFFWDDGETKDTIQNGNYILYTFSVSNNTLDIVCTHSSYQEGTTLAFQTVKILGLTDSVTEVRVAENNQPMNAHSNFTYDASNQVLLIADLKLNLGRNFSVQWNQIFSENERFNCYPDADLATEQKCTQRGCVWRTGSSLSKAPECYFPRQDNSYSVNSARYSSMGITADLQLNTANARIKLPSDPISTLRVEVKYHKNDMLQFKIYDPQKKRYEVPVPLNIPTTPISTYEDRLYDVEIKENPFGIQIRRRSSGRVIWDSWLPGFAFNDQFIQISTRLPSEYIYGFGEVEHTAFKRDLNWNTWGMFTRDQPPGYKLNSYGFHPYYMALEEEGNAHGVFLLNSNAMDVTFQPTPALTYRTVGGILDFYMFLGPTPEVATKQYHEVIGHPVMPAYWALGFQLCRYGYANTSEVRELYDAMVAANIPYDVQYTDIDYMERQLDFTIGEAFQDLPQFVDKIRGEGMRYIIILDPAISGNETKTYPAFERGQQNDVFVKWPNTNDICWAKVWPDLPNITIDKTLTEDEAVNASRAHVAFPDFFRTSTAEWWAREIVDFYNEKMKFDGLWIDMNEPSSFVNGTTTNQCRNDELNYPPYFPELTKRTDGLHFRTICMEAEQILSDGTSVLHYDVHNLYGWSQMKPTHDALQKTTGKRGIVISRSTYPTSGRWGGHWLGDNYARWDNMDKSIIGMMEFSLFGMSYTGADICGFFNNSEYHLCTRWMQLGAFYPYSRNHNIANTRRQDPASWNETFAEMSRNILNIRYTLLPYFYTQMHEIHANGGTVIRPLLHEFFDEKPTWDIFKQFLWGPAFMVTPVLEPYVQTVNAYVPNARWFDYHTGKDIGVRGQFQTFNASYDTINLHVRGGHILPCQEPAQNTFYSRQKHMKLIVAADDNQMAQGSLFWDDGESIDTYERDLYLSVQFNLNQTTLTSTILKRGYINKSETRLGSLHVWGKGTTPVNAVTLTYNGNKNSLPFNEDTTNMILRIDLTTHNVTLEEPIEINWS
# Method: Breath samples were analysed for ^13CO2 by an isotope ratio mass spectrometer (IRMS; Europa Scientific, ABCA 20/20, Crewe, United Kingdom) equipped with a V410 data collection system. Isotope ratio mass spectrometric analysis of breath samples expresses results as a delta value, representing the ratio of ^13C/^12C in the sample in parts per thousand relative to the calcium carbonate international primary standard, Pee-Dee Belemnite limestone (South Carolina, USA)(Renes et al., (1997). Baseline levels of breath ^13CO2 were determined by averaging the delta of breath samples collected prior to the ingestion of sucrose. Results from the ^13C-Sucrose Breath Test were then calculated as the change in breath ^13CO2 levels from baseline (i.e. delta over baseline: DOB) for each time point of breath collection over the period of interval sampling. The area under the “change in breath ^13CO2 level over time” curve (AUC) was calculated using the trapezoidal rule: AUC=Σ[(DOBt1+DOBt2)/2]×(t2−t1)
# The study recruited 10 healthy, non-smoking adults (male n=2; female n=8) aged 19-37 years old (mean age 22+2 years) with mean weight 65.2+3 kg. Subjects had no known history of gastrointestinal or liver disease. Antibiotic and non-steroidal antiinflammatory drug use in the three weeks preceding the experiment and acute alcohol consumption the day preceding the experiment warranted exclusion. […]
# Dark Agouti rats [5] = assay: Food intake, body weight, villus height and overall mucosal damage in MTX-treated rats with or without folinate; assay type: in vivo, rat
# Method: (§2) Sixteen female SPF Dark Agouti rats were housed in individual metabolism cages and were given ad libitum access to a semi-synthetic casein based diet and fresh water. Food and water intakes and body weights were measured daily. They were given two injections of MTX (1.5 mg/kg i/m) at 0 and 24 hrs. Calcium folinate was added to the drinking water of eight rats (10 mg/m^2) 2 hours prior to, and during MTX injections. Eight rats were given MTX but no folinate treatment, and four control rats were given no treatments. Four rats from each treatment group were killed at 72 hours, and the other four at 120 hours, after initial chemotherapy. SBT were undertaken before chemotherapy, and at 52 and 100 hours after initial chemotherapy.
# (§3) At the appropriate times, rats were anaesthetised with halothane, cardiac blood samples collected and the animals were killed by cervical dislocation. The small intestine was emptied, flushed with chilled saline and weighed. Samples were collected into formalin from each of the proximal jejunum for histological assessment, and from the jejunum into liquid nitrogen for sucrase and myeloperoxidase determinations.
# Dark Agouti rats [6] = assay: Sucrose breath test in MTX-treated rats with or without folinate; assay type: in vivo, rat
# Method: as §2
# Breath ^13CO2 levels are indicative of sucrase activity in the small intestine. SBTs were undertaken before and after chemotherapy. • Rats were fasted for 3 hrs and placed in the collection chambers for 15 minutes to acclimatise and baseline samples collected into exetainers. • Rats were gavaged with 1.0 ml of a sucrose solution containing 1 g/ml of naturally enriched ^13C-sucrose. • Breath samples were collected at 30, 60 and 90 minute time intervals after gavage and analysed for ^13CO2 by isotope ratio mass spectrometry (PDZ-Europa ABCA).
# sucrase [7] = assay: Jejunal sucrase activity in MTX-treated rats with or without folinate; assay type: in vivo, rat; conditions: MTX-treated rats with folinate vs non-folinate
# Method: as §2, §3
# Sucrase activity was measured using a modification of the glucose oxidase method for estimation of the […] glucose concentration (Dahlqvist, 1968).
# sucrase [8] = molecular target: T1, sucrase; assay: Breath hydrogen analysis in healthy adults, with and without sucrase inhibitor; assay type: in vivo; conditions: 20 g sucrose with or without 200 mg acarbose, 180 min
# Method: Subjects ingested 20 g, 40 g and 60 g sucrose (AnalaR, BDH, MERCK Pty Ltd, Victoria, Australia) dissolved in 100 ml water on separate occasions. The order of these breath tests was random for each subject. To determine whether the breath test was capable of detecting inhibition of sucrase activity, two volunteers ingested 2×100 mg sucrase inhibitor (Acarbose tablets, Glucobay™) crushed and dissolved in 30 ml water, immediately followed by 20 g sucrose dissolved in 70 ml water.
# All subjects were required to fast for a minimum of eight hours prior to testing and for the three hour duration of the test period. Small amounts of water were permitted 30 minutes after ingestion of the test solution. Subjects provided two baseline breath samples immediately prior to ingestion of the test solution. Following ingestion of the test solution, breath samples were collected every 15 minutes for three hours. Physical activity was avoided during the three hour experimental period, particularly at breath collection time points. End-expiratory breath samples were provided by exhaling through a straw into 5×10 ml glass tubes (Exetainer, Labco Limited, High Wycombe, England). […]
# Breath samples provided by human subjects were analysed for hydrogen content by gas chromatography (Quintron, Model DP Microlyzer, E.F. Brewer Company, Wisconsin). […]
# sucrase [9] = assay: In vitro assay of sucrase activity in duodenum, jejunum and ileum of methotrexate-treated rats; assay type: in vivo, rat; conditions: Day 7 after methotrexate treatment, vs control, p<0.0005
# From the text: Rats were sacrificed in the afternoon of day 7 by cervical dislocation under CO2 anaesthesia. The abdomen was opened via a midline incision and the liver and gut excised. The gut contents were flushed thoroughly with phosphate buffered saline, pH 6.0. The small intestine was placed on an ice-cold slab and divided into three sections: the duodenum comprising the intestine from the gastro-duodenal junction to the ligament of Treitz; the remaining intestine from the ligament of Treitz to the caecum was divided in half to provide jejunum and ileum of equal length. […]
# the method of Dahlqvist (1968). […] Enzyme activity was then related to the protein concentration of the enzyme preparation as determined by the method of Bradford (1976), in which a standard curve of bovine serum albumin concentration is used to ascertain the protein content of the sample. As a result, the sucrase activity representative of duodenal, jejunal and ileal brush border membrane was determined as μ mol of substrate hydrolysed at 37° C. at pH 6.0/mg protein/hour.
# Sucrase activity was expressed as specific activity relative to protein (μmol substrate hydrolysed at 37° C. at pH 6.0/mg protein/hour) and presented as mean±SEM. […] Significant difference in sucrase activity in the duodenum, jejunum and ileum of methotrexate-treated compared to control rats was detected using an unpaired t-test.
# small intestine [10] = assay: Histological severity score of small intestinal damage, methotrexate-treated rats; assay type: in vivo, rat; conditions: rats treated with methotrexate seven days earlier, n=4; median; maximum score 33
# From the text: Rats were sacrificed in the afternoon of day 7 by cervical dislocation under CO2 anaesthesia. The abdomen was opened via a midline incision and the liver and gut excised. The gut contents were flushed thoroughly with phosphate buffered saline, pH 6.0. The small intestine was placed on an ice-cold slab and divided into three sections: the duodenum comprising the intestine from the gastro-duodenal junction to the ligament of Treitz; the remaining intestine from the ligament of Treitz to the caecum was divided in half to provide jejunum and ileum of equal length. A 4 cm portion was excised from each intestinal section and was rapidly frozen in liquid nitrogen, before being transferred to a −70° C. freezer until determination of sucrase activity. A further 1 cm of each section was excised and fixed in methacarn fixative for two hours, transferred to 70% ethanol for 48 hours, and embedded in paraffin wax for histological analysis (Howarth et al., (1996).
# Tissue samples in paraffin wax were sectioned transversely at 21 μm, stained with haematoxylin and eosin to expose the structure of the intestinal mucosa, and examined by an under a light microscope (Howarth et al., 1996). A semi-quantitative histological assessment of intestinal damage was utilised to obtain an overall score of damage severity in the three sections of the small intestine. A severity score ranging from 0-3 was allocated for 11 histological features (table 1), such that the maximum severity score (33) indicated the most severe damage (Howarth et al., 1996).
# Histological severity scores were calculated and presented as median and range. The unpaired non-parametric Mann-Whitney two-sample test was employed to compare the severity scores of the methotrexate-treated rats with controls for each section of intestine.
# myeloperoxidase = assay: Jejunal myeloperoxidase (MPO) in MTX-treated rats; assay type: in vivo, rat; conditions: MTX treated rats not given folinate, 72 hours
# Method: as §2, §3
smiles,measurement,setting,value
"O=c1[nH]cc(F)c(=O)[nH]1 [5-FU, 5-fluorouracil]",Food intake 72 hours after injection,Dark Agouti rats [1],4.7 ± 0.7 g
same,Food intake 96 hours after injection,Dark Agouti rats [1],6.4 ± 0.8 g
same,Food intake 24 hours after injection,Dark Agouti rats [1]; before treatment 11.1±0.3 g/rat/day,5.3 ± 0.4 g
same,Ileal sucrase activity at 72 hours,sucrase [2],7.52±0.82 nmol glucose/min/cm
same,"Histological severity score, ileum, 72 hours",small intestine [3],12
same,"Histological severity score, ileum, 96 hours",small intestine [3],8
same,"Histological severity score, jejunum, 72 hours",small intestine [3],8
same,"Histological severity score, jejunum, 96 hours",small intestine [3],5
same,"Histological severity score, ileum, 48 hours",small intestine [3]; median,17
same,"Histological severity score, jejunum, 48 hours",small intestine [3]; median,13
C[C@H]1O[C@H](O[C@H]2[C@H](O)[C@@H](O)[C@@H](O[C@H]3[C@H](O)[C@@H](O)C(O)O[C@@H]3CO)O[C@@H]2CO)[C@H](O)[C@@H](O)[C@@H]1N[C@H]1C=C(CO)[C@@H](O)[C@H](O)[C@H]1O (stereo partly shown) [Acarbose],Breath 13CO2 AUC diminished in the presence of the inhibitor,sucrase [4],57% and 93%
Nc1nc(=O)c2c([nH]1)NCC(CNc1ccc(C(=O)N[C@@H](CCC(=O)[O-])C(=O)[O-])cc1)N2C=O.[Ca+2] (stereo partly shown) [Calcium folinate],"Damage to the small intestinal mucosa by sucrase activity, MPO levels, histological changes and sucrose breath testing",Dark Agouti rats [5]; MTX-treated rats,totally prevented damage
same,Villus heights (structural damage),"Dark Agouti rats [5]; MTX-treated rats, folinate administered orally",structural damage was attenuated
same,"Disruption to the sucrase activity by SBT, folinate vs no folinate","Dark Agouti rats [6]; MTX-treated rats, p<0.0012 at 52 hours, p<0.0136 at 100 hours",significant decrease in disruption to the sucrase activity
same,SBT result (breath 13CO2) 52 hrs after MTX treatment,"Dark Agouti rats [6]; rats, MTX 1.5 mg/kg i/m at 0 and 24 hrs, calcium folinate 10 mg/m^2 in drinking water",attenuates mucosal damage
same,Jejunal sucrase activity,sucrase [7],prevented the reduction in jejunal sucrase activity
"OC[C@H]1O[C@@](CO)(O[C@H]2O[C@H](CO)[C@@H](O)[C@H](O)[C@H]2O)[C@@H](O)[C@@H]1O [Sucrose, sucrose]","Breath Hydrogen, Subject 1, maximum change from baseline",sucrase [8],2 ppm
same,"Breath Hydrogen, Subject 2, maximum change from baseline",sucrase [8],2 ppm
CN(Cc1cnc2nc(N)nc(N)c2n1)c1ccc(C(=O)N[C@@H](CCC(=O)O)C(=O)O)cc1 [methotrexate],Body weights,"Dark Agouti rats [5]; rats, MTX without folinate, after chemotherapy",decreased
same,Reduction in food intake,"Dark Agouti rats [5]; rats, MTX without folinate, from t0 to 96 hours after treatment",20%
same,"Sucrase activity in duodenum, jejunum and ileum",sucrase [9],significantly diminished in all three sections of intestine
same,"Severity score, duodenum",small intestine [10],8 *
same,"Severity score, ileum",small intestine [10],6.5 *
same,"Severity score, jejunum",small intestine [10],10 *
same,"Myeloperoxidase (inflammatory marker), jejunum",myeloperoxidase,significantly higher
